{"source": "patent US20200022963A1", "about": "“PHARMACEUTICAL COMPOSITION COMPRISING BETAHISTINE” (Otolanum AG, priority 2017, published 2020)", "key": {"[1]": {"assay": "Relative bioavailability of intranasal versus oral betahistine in humans, Example 6", "assay_type": "in vivo", "details": "human", "method": "(Journal of Psychopharmacology, 2016, Vol. 30(3) 237-241). In brief, in this study, forty-eight healthy women were recruited and randomized to receive per os (i.e. orally) either betahistine 144 mg/day (48 mg t.i.d.) or matching placebo for 4 weeks. […] Study medication (betahistine or matching placebo) was administered at least 30 minutes prior to eating. On Day 8, blood samples of 6 mL each were collected at 8 am, and 30, 60, 150 and 300 minutes thereafter. Plasma concentrations of betahistine and its metabolite 2-PAA were determined by high-performance liquidy chromatography."}, "[2]": {"assay": "Oral betahistine study in healthy women, Barak et al.", "assay_type": "in vivo", "details": "human, oral 48 mg (0.8 mg/kg), Barak et al. data", "method": "For the calculation of the relative bioavailability of intranasal betahistine compared to peroral betahistine, the area under the concentration-time curve (AUC) determined in Example 3 was compared to the AUC determined in a study with oral betahistine in healthy volunteers described in Barak et al. (Journal of Psychopharmacology, 2016, Vol. 30(3) 237-241). In brief, in this study, forty-eight healthy women were recruited and randomized to receive per os (i.e. orally) either betahistine 144 mg/day (48 mg t.i.d.) or matching placebo for 4 weeks. Their mean weight was 60.2 kg in the active-treated group (n=24) and 59.8 kg in the placebo group (n=24). Study medication (betahistine or matching placebo) was administered at least 30 minutes prior to eating. On Day 8, blood samples of 6 mL each were collected at 8 am, and 30, 60, 150 and 300 minutes thereafter. Plasma concentrations of betahistine and its metabolite 2-PAA were determined by high-performance liquidy chromatography."}, "[3]": {"assay": "Single ascending-dose clinical trial of intranasal betahistine in healthy volunteers (safety)", "assay_type": "in vivo", "details": "human", "experimental": "(§1) The safety and pharmacokinetic profile of intranasal betahistine was further evaluated in a double-blind, randomized, placebo-controlled, single ascending-dose clinical trial involving a total of 32 healthy male and female volunteers. The main inclusion criteria were that subjects had to be aged 18-45 years and show a body mass index within the range of 18-30 kg/m^2. Subjects were required to fast for 8 hours prior to study drug administration and for 2 hours post-dose.\n(§2) The betahistine was supplied as a 50 and 200 mg/mL solution in a HDPE bottle and spray pump pack (Aptar Classic Line) that delivers an accurate 100 μL per actuation. The study drug was delivered into the right nostril of subjects while they were in a supine position. For the 5 and 20 mg doses, one application of 50 and 200 mg/mL, respectively, was needed, whereas for the 10 and 40 mg doses, two applications of 50 and 200 mg/mL were required."}, "[4]": {"assay": "Single-dose and repeat-dose intranasal toxicology study in beagle dogs (safety)", "assay_type": "in vivo", "details": "dog", "description": "Salivation after betahistine treatment was previously reported to occur in dogs, it was transient in nature in the present study and resolved quickly. Body weights, clinical pathology and gross necropsy findings were unremarkable."}, "[5]": {"assay": "Toxicokinetic assessment of plasma betahistine and 2-PAA after intranasal betahistine (LC-MS/MS), Example 2", "details": "both, beagle, dog, inhaled or intranasal", "experimental": "The safety and pharmacokinetic profile of intranasal betahistine was first evaluated in a single dose toxicology study in male and female beagle dogs (14-21 months of age, weight 8.2-11.8 kg). Both the vehicle and test article were delivered in a single dose via a nasal spray pump (Aptar Classic Line) with a delivery volume of 100 μL into both nostrils at total dose levels of 0 (vehicle), 4, 20 or 80 mg of betahistine dihydrochloride. Each treatment group was made up of 1 dog/sex.\nPlasma concentrations were measured with liquid chromatographic tandem mass spectrometry (LC-MS/MS; SCIEX API 5000 for betahistine and SCIEX API 4000 for 2-pyridylacetic acid (2-PAA)) with a validated method. Betahistine-^13CD3 dihydrochloride and 2-PAA-D4 hydrochloride served as internal standards. The standard calibration range—using a plasma sample volume of 0.05 mL—for betahistine was 0.05 to 50 ng/mL and for 2-PAA it was 1 to 1000 ng/mL. The limit of quantitation was 0.05 ng/mL for betahistine and 1.0 ng/mL for 2-PAA.\nIn case of betahistine, the method involved a liquid-liquid extraction; in case of 2-PAA it involved protein precipitation. For betahistine, plasma samples were extracted under basic conditions with an organic solvent; the organic phase was dried and reconstituted in reconstitution solvent. Approximately 0.1 mL of the aqueous layer was transferred into polypropylene vials for LC-MS/MS analysis. For 2-PAA, plasma samples were precipitated with a mixture of organic solvents, supernatant was diluted and 0.12 mL was transferred into polypropylene vials for LC-MS/MS analysis. Sample analysis was conducted using reversed phase chromatography."}, "[6]": {"assay": "Single ascending-dose clinical trial of intranasal betahistine in healthy volunteers (plasma pharmacokinetics, LC-MS/MS)", "details": "human; for half-life / AUC / AUC(0-inf) / AUC(0-t) / Cmax / Tmax: both, plasma, inhaled or intranasal", "experimental": "as §1, §2\nSerial blood samples were collected through 24 hours, following dosing on Day 1, at Day 4 and Day 7 to determine concentrations of betahistine and its main metabolite, 2-PAA in plasma. Plasma samples were assayed for BH content using validated procedures and methods. Blood samples (6 mL) were collected into tubes containing K2EDTA and were centrifuged at approximately 2000 g for 10 minutes at +4° C. and the resultant plasma transferred into 2 clean, labelled 2 mL cryovials. All plasma samples were stored at −70° C. or below until all samples had been collected and sent as a single batch for analysis. […] Concentrations were determined using liquid chromatographic tandem mass spectrometry (LC-MS/MS; SCIEX API 5000 for betahistine and SCIEX API 4000 for 2-PAA) with a validated method. Betahistine-^13CD3 dihydrochloride and 2-PAA-D4 hydrochloride served as internal standards. The standard calibration range—using a plasma sample volume of 0.2 and 0.1 mL, respectively—for betahistine was 10 to 800 pg/mL and for 2-PAA it was 2 to 2000 ng/mL. The limit of quantitation was 10 pg/mL for betahistine and 2.0 ng/mL for 2-PAA.\nIn case of betahistine, the method involved a liquid-liquid extraction; in case of 2-PAA it involved protein precipitation. For betahistine, plasma samples were extracted under basic conditions with an organic solvent; the organic phase was dried and reconstituted in reconstitution solvent. Approximately 0.120 mL of the aqueous layer was transferred into polypropylene vials for LC-MS/MS analysis. For 2-PAA plasma samples were precipitated with a mixture of organic solvents, supernatant was diluted and 0.120 mL was transferred into polypropylene vials for LC-MS/MS analysis. Sample analysis was conducted using reversed phase chromatography.\nFor each subject who completed the study, plasma concentration-time data of betahistine and 2-PAA were used for the calculation of the following pharmacokinetic parameters: • Cmax Maximum observed plasma concentration obtained directly from the data. • tmax Time to maximum observed concentration, taken directly from the data. If the maximum plasma concentration occurred at more than one time point, the first was chosen. • AUC0-last Area under the plasma concentration versus time curve, calculated using the linear trapezoidal rule from time 0 to time t, where t is the time of last quantifiable concentration. • λz Terminal elimination rate constant obtained from the slope of the line, fitted by linear least squares regression through the terminal points of the logarithmic concentration-time profiles (sometimes also referred to as kel). • AUC0-inf Area under the plasma concentration versus time curve from zero to infinity, calculated as (AUC0-t+Ct/λz), where Ct is the last quantifiable concentration. • t1/2 Apparent terminal half-life, calculated as t1/2=ln(2)/λz.\nDose normalized parameters Cmax/Dose and AUC/Dose were also calculated."}, "[7]": {"details": "intranasal single and repeated dose"}}}
{"smiles": "CNCCc1ccccn1", "note": "[betahistine]", "values": [{"measurement": "bioavailability with intranasal administration higher than with oral administration", "setting": "[1]", "value": "20-40 times"}, {"measurement": "relative bioavailability fold factor", "setting": "[1]; 40 mg intranasal vs. 48 mg per os", "value": 41.1, "unit": "×"}, {"measurement": "relative bioavailability of oral vs. intranasal", "setting": "[1]; Barak et al. oral AUC vs Example 3 intranasal AUC", "value": "approximately 2.4%"}, {"measurement": "Rel. Bioavail.", "setting": "[1]; intranasal 5 mg relative to oral 48 mg (Barak et al.)", "value": 19.9}, {"measurement": "Rel. Bioavail.", "setting": "[1]; intranasal 10 mg relative to oral 48 mg (Barak et al.)", "value": 24.2}, {"measurement": "Rel. Bioavail.", "setting": "[1]; intranasal 20 mg relative to oral 48 mg (Barak et al.)", "value": 37.0}, {"measurement": "Rel. Bioavail.", "setting": "[1]; intranasal 40 mg relative to oral 48 mg (Barak et al.)", "value": 41.1}, {"measurement": "AUC/Dose", "setting": "[2]", "value": "0.15 (h · ng/mL)/(mg/kg)"}, {"measurement": "hematology, biochemistry, urinalysis, vital signs and electrocardiogram assessments", "setting": "[3]; active- versus placebo-treated subjects", "value": "no differences"}, {"measurement": "tolerability", "setting": "[3]; intranasal 5, 10, 20 and 40 mg", "value": "well tolerated"}, {"measurement": "test article-related clinical signs", "setting": "[4]; intranasal 80 mg single dose and repeated dose 240 mg/day, transient", "value": "mild to moderate salivation"}, {"measurement": "body weights, clinical pathology and gross necropsy findings", "setting": "[4]; [7]", "value": "unremarkable"}, {"measurement": "microscopic findings", "setting": "[4]; [7]", "value": "No adverse treatment-related microscopic findings"}, {"measurement": "Tmax", "setting": "[5]", "value": 5, "unit": "min"}, {"measurement": "Cmax", "setting": "[5]; 4 mg", "value": 26, "unit": "ng/mL"}, {"measurement": "Cmax", "setting": "[5]; 20 mg", "value": 81, "unit": "ng/mL"}, {"measurement": "Cmax", "setting": "[5]; 80 mg", "value": 248, "unit": "ng/mL"}, {"measurement": "half-life", "setting": "[6]", "value": "< 60", "unit": "min"}, {"measurement": "AUC", "setting": "[6]; 0.07 mg/kg", "value": 0.209, "unit": "ng·h/mL"}, {"measurement": "AUC", "setting": "[6]; 0.15 mg/kg", "value": 0.533, "unit": "ng·h/mL"}, {"measurement": "AUC", "setting": "[6]; 0.29 mg/kg", "value": 1.61, "unit": "ng·h/mL"}, {"measurement": "AUC", "setting": "[6]; 0.57 mg/kg", "value": 3.53, "unit": "ng·h/mL"}, {"measurement": "AUC(0-inf)", "setting": "[6]; 5 mg", "value": 0.277, "unit": "ng·h/mL"}, {"measurement": "AUC(0-t)", "setting": "[6]; 5 mg", "value": 0.209, "unit": "ng·h/mL"}, {"measurement": "Cmax", "setting": "[6]; 5 mg", "value": 0.638, "unit": "ng/mL"}, {"measurement": "Tmax", "setting": "[6]; 5 mg", "value": 12.5, "unit": "min"}, {"measurement": "half-life", "setting": "[6]; 5 mg", "value": 12.5, "unit": "min"}, {"measurement": "AUC(0-inf)", "setting": "[6]; 10 mg", "value": 0.697, "unit": "ng·h/mL"}, {"measurement": "AUC(0-t)", "setting": "[6]; 10 mg", "value": 0.533, "unit": "ng·h/mL"}, {"measurement": "Cmax", "setting": "[6]; 10 mg", "value": 2.11, "unit": "ng/mL"}, {"measurement": "Tmax", "setting": "[6]; 10 mg", "value": 10, "unit": "min"}, {"measurement": "half-life", "setting": "[6]; 10 mg", "value": 53, "unit": "min"}, {"measurement": "AUC(0-inf)", "setting": "[6]; 20 mg", "value": 1.63, "unit": "ng·h/mL"}, {"measurement": "AUC(0-t)", "setting": "[6]; 20 mg", "value": 1.61, "unit": "ng·h/mL"}, {"measurement": "Cmax", "setting": "[6]; 20 mg", "value": 4.11, "unit": "ng/mL"}, {"measurement": "Tmax", "setting": "[6]; 20 mg", "value": 10, "unit": "min"}, {"measurement": "half-life", "setting": "[6]; 20 mg", "value": 31.1, "unit": "min"}, {"measurement": "AUC(0-inf)", "setting": "[6]; 40 mg", "value": 2.94, "unit": "ng·h/mL"}, {"measurement": "AUC(0-t)", "setting": "[6]; 40 mg", "value": 3.53, "unit": "ng·h/mL"}, {"measurement": "Cmax", "setting": "[6]; 40 mg", "value": 10.5, "unit": "ng/mL"}, {"measurement": "Tmax", "setting": "[6]; 40 mg", "value": 7.5, "unit": "min"}, {"measurement": "half-life", "setting": "[6]; 40 mg", "value": 55.6, "unit": "min"}, {"measurement": "peak concentration in plasma", "setting": "[6]; intranasal 20 mg", "value": 4.1, "unit": "ng/mL"}, {"measurement": "peak concentration in plasma", "setting": "[6]; intranasal 40 mg", "value": 10.5, "unit": "ng/mL"}]}
